US11964976B1, “Substituted pyrido[3′,4′:4,5]pyrrolo[3,2-c][1,6]naphthyridines as CK2 inhibitors” (KING FAISAL UNIVERSITY, priority 2023, dated 2024)

Key:
A375 (melanoma) = experiment: In vitro cytotoxic activity (MTT) assay, A375; format: cell-based; details: Homo sapiens, A-375; A375 (melanoma) cells, exposed for 96 hours; read-out: IC50, concentration eliciting 50% inhibition of cell proliferation
Experimental: (§1) Compounds 1-15 were screened for their in vitro cytotoxic activity utilizing a 3-(4,5-dimethyl-thiazol-2-yl)-2,5-diphenyltetrazolium bromide (MTT) assay against selected cancer human cell lines consisting of PC3 (prostate), HCT116 (colon), A375 (melanoma), H1299 (lung), MIAPaCa-2 (pancreas), HL60 (leukemia), MCF7 (breast), MDA-MB-231 (breast) (T. Mosmann, J. Immunol. Meth., 1983, 65, 55-63). The cells were cultured at 37° C. in RMPI1640 medium supplemented with 10% fetal bovine serum, 50 IU/mL penicillin, and 50 μg/mL streptomycin in a 5% CO2 incubator. All cells were sub-cultured 3 times/week by trypsinisation. Viable cells were seeded and allowed to adhere for 12 h before a test drug was added in 96-well plates at an initial density of 1.0×10^5 cells/mL. Tumor cell lines were separately exposed to various concentrations of the tested compounds followed by incubation at a temperature of 37° C. during 96 hours inside a medium of fresh RMPI 1640. Cells were subsequently incubated at 37° C. using MTT at 0.5 mg/mL during 4 hours. After removal of supernatant, formazan crystals were dissolved in isopropanol and the optical density was measured at 570 nm. CX-4945 was used as a positive control.

MDA-MB-231 (breast) = experiment: In vitro cytotoxic activity (MTT) assay, MDA-MB-231; format: cell-based; details: Homo sapiens; MDA-MB-231 (breast) cells, exposed for 96 hours; read-out: IC50, concentration eliciting 50% inhibition of cell proliferation
Experimental: as §1

H1299 (lung) = experiment: In vitro cytotoxic activity (MTT) assay, H1299; format: cell-based; details: Homo sapiens, NCI-H1299; H1299 (lung) cells, exposed for 96 hours; read-out: IC50, concentration eliciting 50% inhibition of cell proliferation
Experimental: as §1

HCT116 (colon) = experiment: In vitro cytotoxic activity (MTT) assay, HCT116; format: cell-based; details: Homo sapiens, HCT-116; HCT116 (colon) cells, exposed for 96 hours; read-out: IC50, concentration eliciting 50% inhibition of cell proliferation
Experimental: as §1

MCF7 (breast) = experiment: In vitro cytotoxic activity (MTT) assay, MCF7; format: cell-based; details: Homo sapiens; MCF7 (breast) cells, exposed for 96 hours; read-out: IC50, concentration eliciting 50% inhibition of cell proliferation
Experimental: as §1

PC3 (prostate) = experiment: In vitro cytotoxic activity (MTT) assay, PC3; format: cell-based; details: Homo sapiens, Prostate cell; PC3 (prostate) cells, exposed for 96 hours; read-out: IC50, concentration eliciting 50% inhibition of cell proliferation
Experimental: as §1

[1] = biological target: T1, recombinant human CK2 (RRββ-holoenzyme) (Homo sapiens, UniProt P68400); experiment: CK2 Kinase Assay (33P-ATP, filter plate); format: biochemical; details: final ATP concentration 15 μM, 10 min at 30° C.; read-out: protein kinase CK2 IC50
T1 construct: purchased Millipore
T1 sequence (P68400 whole entry): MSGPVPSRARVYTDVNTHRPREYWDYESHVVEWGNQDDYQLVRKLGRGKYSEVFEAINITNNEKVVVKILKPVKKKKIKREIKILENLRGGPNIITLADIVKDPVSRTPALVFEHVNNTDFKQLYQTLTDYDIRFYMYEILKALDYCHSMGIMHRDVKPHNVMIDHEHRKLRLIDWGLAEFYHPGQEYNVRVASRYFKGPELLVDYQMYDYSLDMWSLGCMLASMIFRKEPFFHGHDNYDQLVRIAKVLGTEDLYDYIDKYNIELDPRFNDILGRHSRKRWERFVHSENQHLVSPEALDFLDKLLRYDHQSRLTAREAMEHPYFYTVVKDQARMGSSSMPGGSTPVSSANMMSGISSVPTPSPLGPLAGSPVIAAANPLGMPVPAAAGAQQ
T1 sequence (P67870 whole entry partner): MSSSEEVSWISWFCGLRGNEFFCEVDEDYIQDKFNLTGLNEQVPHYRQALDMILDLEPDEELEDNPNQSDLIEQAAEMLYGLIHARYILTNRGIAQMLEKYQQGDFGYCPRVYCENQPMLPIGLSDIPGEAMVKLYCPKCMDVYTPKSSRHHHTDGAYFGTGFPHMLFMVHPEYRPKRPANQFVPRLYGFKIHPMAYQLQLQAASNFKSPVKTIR
Experimental: CK2 Kinase Assay was conducted using the protocol as described in Pierre F. et al; J. Med. Chem. 2011, 54, 635-654. The tested compounds in aqueous solution were added at a volume of 10 μL to a reaction mixture comprising 10 μL of assay dilution buffer (ADB; 20 mM MOPS, pH 7.2, 25 mM β-glycerol phosphate, 5 mM EGTA, 1 mM sodium orthovanadate, and 1 mM dithiothreitol), 10 μL of substrate peptide (RRRDDDSDDD, dissolved in ADB at a concentration of 1 mM), 10 μL of recombinant human CK2 (RRββ-holoenzyme, 25 ng dissolved in ADB; Millipore). Reactions were initiated by the addition of 10 μL of ATP solution (90% 75 mMMgCl2, 75 μM ATP (final ATP concentration: 15 μM) dissolved in ADB; 10% [γ-33P] ATP (stock 1mCi/100 μL; 3000 Ci/mmol (Perkin-Elmer) and maintained for 10 min at 30° C. The reactions were quenched with 100 μL of 0.75% phosphoric acid and then transferred to and filtered through a phosphor cellulose filter plate (Millipore). After washing each well five times with 0.75% phosphoric acid, the plate was dried under vacuum for 5 min and, following the addition of 15 μL of scintillation fluid to each well, the residual radioactivity was measured using a Wallac luminescence counter. The IC50 values were derived from eight concentrations of test inhibitors.

HL60 (leukemia) = experiment: In vitro cytotoxic activity (MTT) assay, HL60; format: cell-based; details: Homo sapiens, HL-60; HL60 (leukemia) cells, exposed for 96 hours; read-out: IC50, concentration eliciting 50% inhibition of cell proliferation
Experimental: as §1

MIAPaCa-2 (pancreas) = experiment: In vitro cytotoxic activity (MTT) assay, MIAPaCa-2; format: cell-based; details: Homo sapiens, MIA PaCa-2; MIAPaCa-2 (pancreas) cells, exposed for 96 hours; read-out: IC50, concentration eliciting 50% inhibition of cell proliferation
Experimental: as §1

`Clc1cccc(Nc2nc3ccncc3c3[nH]c4ccncc4c23)c1` [Compound 1, N-(3-chlorophenyl)-11H-pyrido[3′,4′:4,5]pyrrolo[3,2-c][1,6]naphthyridin-6-amine] showed an IC50 (A375 (melanoma)) of 4.4 µM, an IC50 (MDA-MB-231 (breast)) of 2600 nM and an IC50 (H1299 (lung)) of 1200 nM. The IC50 (HCT116 (colon)) was 1300 nM, the IC50 (MCF7 (breast)) was 3.1 µM and the IC50 (PC3 (prostate)) was 1000 nM. It also gave an IC50 [1] of 29 nM, an IC50 (HL60 (leukemia)) of 3.5 µM and an IC50 (MIAPaCa-2 (pancreas)) of 1100 nM.
